A value given as a limit tells only on which side of the number the result lay.

Type in all cases: cell-based, murine
For assay [1], the system named is RAW 264.7 macrophages. The assay can be described thus: Phagocytic receptor assay: engulfment of IgG or ligand coated particles by RAW macrophages (foam cell model), confocal. The source says:
FIG. 25, panels A and B, illustrate respectfully a method for measurement of phagocytic receptors and a method for measuring transfection or delivery of nucleic acids and simultaneous measurement of particle engulfment using a single cell multi label confocal microscope experiment. A direct or surrogate measurement of receptor function or receptor pathway activity must be made in order establish the role of potential therapeutic target proteins in receptor function. IgG, complement, low density lipoprotein (LDL), oxidatively modified LDL (OX-LDL). Acetyl-LDL, apolipoproteins, lipoproteins, lipopolysaccharide (LPS), scavenger and other receptor functions can be measured by the accumulation of particles. The particles may themselves be comprised in part of fluorescent materials or can be directly stained with fluorescent or other colored materials or can be bound by proteins that directly or indirectly permit the attachment of fluorescent, chemiluminescent or other reporter molecules. The beads may be stained in live cells or cells fixed with formalin or paraformaldehyde or organic solvents such as alcohol and acids or by other means. The beads can be stained both before or after internalization with or without the permeabilization of the cells by detergents or organic solvents. The beads may be cells that can be lysed and imaged directly. The cells may be counter stained for the presence of specific proteins using antibodies or may express fluorescent protein constructs or contain fluorescent silencing RNA or DNA constructs or biopolymer modulating agents or drugs (FIG. 25).
We created a foam cell model and quantitative confocal assays for micro particle engulfment by macrophages. The engulfment of particles by macrophages and the generation of free radicals by leukocytes are the key physiological actions that lead to the generation of foam cells that are the center of atherosclerotic plaques. We made a cellular model system of foam cells or activated leukocytes and examine the effects of moderate levels of alcohol over time on the accumulation of particles and generation of free radicals at the site of particle accumulation compared to statins and propranolol. The model systems will consist of RAW macrophages that engulf hydrophobic polystyrene microparticles with or without coating by ligands or mixtures of ligands such as those found in cellular growth media, or free fluorescently labeled DI-LDL, OX-LDL, Acetyl LDL or other. Live cell confocal microscopy was used to quantify the effects of ethanol, compared to lovastatin and propranolol, on particle engulfment.
External particles were stained green with secondary anti rabbit FITC and then cells were permeablized and all particles stained red with secondary anti rabbit CY3. Thus engulfed particles appear red while external particles appear yellow. Beads within the cells carrying only the red signal (engulfed) and not also the green signal {red+green=yellow} (outside) were quantified for accumulation assays using both total fluorescence in the green channel and by counting individual beads in three fields on three independent cover slips for each concentration.
(§1) RAW 264.7 macrophages were cultured in alpha MEM with 5% fetal calf serum as described. The effects of lovastatin on IgG and LDL coated micro-particle engulfment at 0, 50 nM, 100 nM, 500 nM, 1 mM and higher was tested. The accumulation of free DI-LDL was quantified directly by its red fluorescence. External particles were stained green with secondary anti rabbit FITC and then cells were permeablized and all particles stained red with secondary anti rabbit CY3. Thus engulfed particles appear red while external particles appear yellow.

The subject of assay [2] is RAW 264.7 macrophages. The assay can be described thus: Uptake of free fluorescent DI-LDL or OX-LDL, red fluorescence confocal microscopy. The following applies: 594 nm. As to the method: as §1, with “yellow. Beads within the cells carrying only the red signal (engulfed) and not also the green signal {red+green=yellow} (outside) were quantified for accumulation assays using both total fluorescence in the green channel and by counting individual beads in three fields on three independent cover slips for each concentration.” for “yellow.”

For assay [3], the system named is Thrombospondin. Description: Surface expression of thrombospondin on macrophages. The source says: Thrombospondin is a protein that is known to bind apolipoprotein and lipid receptors expressed on the surface of cells including the scavenger receptor class B multi ligand receptor CD36 associated with atherosclerosis and Alzheimer's.
Assay [4] deals with RAW macrophages. Description: Biochemical measurement of protein levels in fractions of drug treated RAW macrophages. The source says:
A now well established side effect of ethanol is to prevent heart attack. Thus the common effects of statins, propranolol, and ethanol must be closely linked to the central mechanism that is the most important pharmacological target of heart attack and thus atherosclerosis prevention. It remains possible that the preventative effect of statins results from their effect to inhibit particle engulfment and foam cell formation by macrophages leading to atherosclerotic plaques. We created a foam cell model and quantitative confocal assays for micro particle engulfment by macrophages. The engulfment of particles by macrophages and the generation of free radicals by leukocytes are the key physiological actions that lead to the generation of foam cells that are the center of atherosclerotic plaques. We have made a cellular model system of leukocytes or activated leukocytes or leukocytes treated over time to examine the effects drugs and biopolymer modification materials over time on the activation of receptors at the site of modified or ligand coated particles. The drugs used in this system to examine the kinetics of receptor function at modified particles may result in changes to the cell including changes in gene expression at the level of DNA transcription, RNA production, accumulation or post-transcription processing, mRNA production accumulation or expression all of which may also alter protein expression. We examined the use of these model systems with and without beads as a system to screen the effects of drugs that are known to prevent heart attack and stroke in model of leukocyte cells within atherosclerotic plaques. We observe that drugs that effect receptor associated signaling may also alter gene, RNA or ultimately protein expression in cells resulting in changes in protein levels. Proteins that change levels in response to a drug may be themselves drug target proteins.
The drugs used in the leukocyte model system to examine the kinetics of receptor function at modified particles may result in changes to the cell including changes in gene expression at the level of DNA transcription, RNA production, accumulation or post-transcription processing, mRNA production accumulation or expression all of which may also alter protein expression. We examined the use of these model systems with and without beads as a system to screen the effects of drugs that are known to effect receptor response at or near the cell surface or interior of the cells. We observe that drugs that effect receptor associated signaling may also alter gene, RNA or ultimately protein expression in cells resulting in changes in protein levels. Proteins that change levels in response to a drug may be themselves drug target proteins. […] The RAW leukocyte model foam cells system alone or in combination with the bead based biology system can be used to characterize the effects of receptor or cellular activation in terms of second messengers such as lipid and protein phosphorylation with respect to drug treatment or time in the cytosol of leukocytes (FIG. 67).

On to `CC[C@H](C)C(=O)O[C@H]1C[C@@H](C)C=C2C=C[C@H](C)[C@H](CC[C@@H]3C[C@@H](O)CC(=O)O3)[C@H]21` [lovastatin], for which, in assay [1] (RAW macrophages, confocal), the “engulfment / accumulation of IgG or ligand coated particles” value was “reduced the capacity of RAW macrophages to engulf particles”. Also, the “dose that directly prevents engulfment of particles” value in assay [1] (cultured macrophage leukocytes) is given as not above 100 nM. Moreover, in assay [2], the “accumulation of free cholesterol (free fluorescent DI-LDL or OX-LDL)” value was “no effect”. In addition, the “expression of Thrombospondin on the cell surface” value in assay [3] was “lowered the expression of Thrombospondin”. Moreover, the “levels of cytosolic proteins (FIG. 57)” value in assay [4] (cytosol fraction) is reported as “alter levels of proteins in the membranes”. Moreover, the “levels of proteins in the extracellular matrix (FIG. 55)” value in assay [4] (matrix fraction) was “alter levels of proteins in the extracellular matrix”. For the same compound, in assay [4] (membrane fraction), the “levels of proteins in the membranes (FIG. 54)” value was “alter levels of proteins in the membranes”. In addition, the “levels of proteins in the secretions (FIG. 56)” value in assay [4] (secreted proteins) was “alter levels of proteins in the secretions”.

The record behind these values is patent US20080124310A1, “Bead based receptor biology” (priority 2006, published 2008).
